Measured values as given in patent US20080234341A1, “Carisoprodol and Phenytoin Methods” (MUTUAL PHARMACEUTICAL COMPANY, INC., priority 2006, published 2008).

Tests used:
[1] = Drug interaction study: carisoprodol added to a steady-state regimen of phenytoin; conditions: human, in vivo; for half-life / Tmax: least sq. mean
Protocol: A single-arm, two-way drug interaction study was conducted in which carisoprodol (350 mg SOMA®) was added to a steady state regimen of phenyloin (PROMPT® Phenyloin Sodium 100 mg Capsules). The effects of coadministration of carisoprodol at steady state conditions on the Cmax and AUC of phenyloin are summarized in Table 5. Twenty-four healthy adults participated in this comparison study and twenty-one of the subjects completed the study.
On study Days 1 through 14, a single 300 mg (1×300 mg capsule) dose of phenyloin sodium was administered to all study subjects following an overnight fast of at least 10 hours.
On study Days 15 through 28, a single 300 mg (1×300 mg capsule) dose of phenyloin sodium and a single 350 mg (1×350 mg tablet) dose of carisoprodol were co-administered to all study subjects following an overnight fast of at least 10 hours. A single dose of carisoprodol was re-administered to all study subjects 3 more times a day (every 6 hours) for Days 15 through 28.
Phenyloin: On study Days 14 and 28, 18 blood samples were collected (6 mL each) from each subject by direct venipuncture using pre-labeled Vacutainers® containing K2 EDTA as an anticoagulant. Blood samples were collected within one hour prior to dosing and after dose administration at study hours 0.5, 1, 1.5, 2, 2.5, 3, 3.5, 4, 4.5, 5, 6, 7, 8, 10, 12, 18, and 24.

[2] = tested on: plasma proteins in the bloodstream such as albumin; conditions: cited from earlier work
[3] = cited from earlier work
[4] = Single-dose two-way crossover study of phenytoin pharmacokinetics, alone or co-administered with carisoprodol; conditions: human, in vivo; for half-life / Tmax: least sq. mean
Protocol: The study was designed as a randomized, single-dose two-way crossover to compare the pharmacokinetic parameters of carisoprodol (350 mg SOMA® (carisoprodol) Tablets by MedPointe Pharmaceuticals, MedPointe Healthcare Inc.) and phenyloin (PROMPT® Phenyloin Sodium 100 mg Capsules by IVAX Pharmaceuticals, Inc.). Twelve healthy adults participated in this comparison study and all of the subjects completed the study.
Subjects received two separate drug administration treatments in assigned periods, one treatment per period, according to the randomization schedule. Treatment (A) was 3 PROMPT® Phenyloin Sodium 100 mg capsules with 240 mL of room temperature water after an overnight fast. Treatment (B) was 3 PROMPT® Phenyloin Sodium 100 mg capsules and 2 tablets of SOMA® (carisoprodol 350 mg tablets) after an overnight fast.
Dosing days were separated by a washout period of at least fourteen days. Blood samples were drawn prior to dosing (pre-dose) and at 0.5, 1, 1.5, 2, 2.5, 3, 3.5, 4, 4.5, 5, 6, 7, 8, 10, 12, 18, 24, and 48 hours post-dose. The samples were then analyzed for total phenyloin. At study hours 2, 4, 6, 12 and 24 an additional blood sample was collected for the determination of “free” phenyloin.
The area under the plasma concentration versus time curve [AUCt] may be calculated using the linear trapezoidal rule from the zero time point to the last measured concentration.
The area under the plasma concentration versus time curve from zero to infinity [AUC0-INF] may be calculated by adding Ct/Kelm to AUC where Ct is the last measured concentration and Kelm is the elimination rate constant.
The maximum observed plasma concentration [Cmax] may be obtained by inspection.
The time to maximum plasma concentration [Tmax] may be obtained by inspection. If the same maximum plasma concentration occurs at more than one time point, the first may be chosen as Tmax.
The terminal elimination rate constant [Kelm] may be obtained from the slope of the line, fitted by linear least squares regression, through the terminal points of the ln(base e) of the concentration versus time plot for these points.
The half-life [T1/2] may be calculated by the equation T1/2=0.693/Kelm.

[5] = cited from earlier work; remark: listed apart in the source

O=C1NC(=O)C(c2ccccc2)(c2ccccc2)N1 [Phenytoin, 5,5-diphenylhydantoin]
AUC0-INF, free steady-state phenytoin, geometric mean [1]: 32701.49 ng·h/mL | AUC0-t, free steady-state phenytoin, geometric mean [1]: 14733.48 ng·h/mL | Cmax, total steady-state phenytoin, geometric mean [1]: 13604.17 ng/mL | kelm, free steady-state phenytoin, least sq. mean [1]: 0.0312 | kelm, total steady-state phenytoin, least sq. mean [1]: 0.0233 | Cmax, free steady-state phenytoin, geometric mean ([1]; 350 mg): 929.76 ng/mL | half-life ([1]; T1/2, free steady-state phenytoin): 35.4 h | half-life ([1]; T1/2, total steady-state phenytoin): 39.4 h | Tmax ([1]; free steady-state phenytoin): 5.04 h | Tmax ([1]; total steady-state phenytoin): 3.55 h | bound to plasma proteins [2]: about 90% | typical clinically effective serum level of unbound or free phenytoin (therapeutic range) ([3]; free phenytoin): 1 to 2 µg/mL | typical clinically effective serum level of total phenytoin (therapeutic range) ([3]; total phenytoin): 10 to 20 µg/mL | AUC0-INF, free phenytoin, geometric mean [4]: 12927.88 ng·h/mL | AUC0-t, free phenytoin, geometric mean [4]: 5150.25 ng·h/mL | AUC(0-inf) [4]: 134000 ng·h/mL | AUC(0-t) [4]: 97300 ng·h/mL | Cmax, total phenytoin, geometric mean [4]: 3222.2 ng/mL | Kelm, total phenytoin, least sq. mean [4]: 0.03395 | kelm, free phenytoin, least sq. mean [4]: 0.0279 | half-life ([4]; T1/2, free phenytoin): 35.8 h | half-life ([4]; T1/2, total phenytoin): 23.9 h | Tmax ([4]; free phenytoin): 9.17 h | Tmax ([4]; total phenytoin): 7.44 h

CCCC(C)(COC(N)=O)COC(=O)NC(C)C (centres unmarked) [Carisoprodol, N-isopropyl-2-methyl-2-propyl-1,3-propanediol dicarbamate]
solubility in alcohol, chloroform, and acetone (descriptive) ([5]; alcohol, chloroform, acetone): freely soluble | solubility in water (descriptive) ([5]; water): very sparingly soluble
